This assay concerns T1, Kinesin-like protein KIF11 (Homo sapiens), P52732 [D130V,A133D].
T1 sequence (whole entry): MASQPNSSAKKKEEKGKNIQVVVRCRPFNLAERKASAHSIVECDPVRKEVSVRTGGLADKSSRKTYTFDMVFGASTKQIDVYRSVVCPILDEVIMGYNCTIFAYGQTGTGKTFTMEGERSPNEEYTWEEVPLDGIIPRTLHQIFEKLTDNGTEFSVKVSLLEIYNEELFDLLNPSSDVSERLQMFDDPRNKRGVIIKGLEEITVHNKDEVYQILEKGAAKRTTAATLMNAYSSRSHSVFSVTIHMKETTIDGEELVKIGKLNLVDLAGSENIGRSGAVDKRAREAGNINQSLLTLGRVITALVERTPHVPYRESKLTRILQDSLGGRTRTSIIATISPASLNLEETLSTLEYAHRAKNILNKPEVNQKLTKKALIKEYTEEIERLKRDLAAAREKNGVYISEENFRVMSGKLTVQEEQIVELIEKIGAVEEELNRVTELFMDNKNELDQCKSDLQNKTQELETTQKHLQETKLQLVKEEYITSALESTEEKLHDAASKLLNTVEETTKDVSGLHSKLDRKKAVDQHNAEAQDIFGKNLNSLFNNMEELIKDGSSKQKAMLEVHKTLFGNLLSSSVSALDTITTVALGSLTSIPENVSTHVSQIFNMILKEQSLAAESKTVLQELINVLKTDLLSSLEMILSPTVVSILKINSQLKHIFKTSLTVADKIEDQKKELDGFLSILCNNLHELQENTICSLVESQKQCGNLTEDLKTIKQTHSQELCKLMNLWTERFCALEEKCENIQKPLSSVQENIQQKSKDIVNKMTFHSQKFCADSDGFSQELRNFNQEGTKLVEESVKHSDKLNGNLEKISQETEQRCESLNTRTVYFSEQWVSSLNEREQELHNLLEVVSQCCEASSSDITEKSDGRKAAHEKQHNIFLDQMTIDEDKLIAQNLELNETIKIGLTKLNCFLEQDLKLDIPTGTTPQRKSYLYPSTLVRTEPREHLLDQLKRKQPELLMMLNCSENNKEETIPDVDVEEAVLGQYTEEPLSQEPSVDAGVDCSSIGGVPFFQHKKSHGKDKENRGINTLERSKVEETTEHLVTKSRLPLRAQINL
In words: Partial inhibition of MT-stimulated ATPase activity of Eg5 D130V/A133D (unknown origin).

Active and inactive are the calls of the source. The rule behind the calls is not given here.

For `Cc1ccc(C(=O)N(CCCN)[C@@H](c2oc3cc(Cl)ccc3c(=O)c2Cc2ccccc2)C(C)C)cc1`, the inhibition result is “Active”.
